How the values were obtained:
[1] = Cytotoxicity against mouse C26 cells assessed as inhibition of cell proliferation after 48 hrs by MTT assay; type: functional, cell-based; conditions: C26, 48 h
MCF7 = experiment: Cytotoxicity against human MCF7 cells assessed as inhibition of cell proliferation after 48 hrs by MTT assay; type: functional, cell-based; conditions: MCF7, 48 h
Calf thymus DNA [2] = experiment: Binding affinity to calf thymus DNA by UV-vis absorption spectrophotometric method; type: nucleic-acid assay; conditions: Bos taurus
A549 [3] = experiment: Cytotoxicity against human A549 cells assessed as inhibition of cell proliferation after 48 hrs by MTT assay; type: functional, cell-based; conditions: A549, 48 h
Calf thymus DNA [4] = experiment: Binding affinity to calf thymus DNA by fluorescence spectroscopic method; type: nucleic-acid assay; conditions: Bos taurus
A2780 = experiment: Cytotoxicity against human A2780 cells assessed as inhibition of cell proliferation after 48 hrs by MTT assay; type: functional, cell-based; conditions: A2780, 48 h
A549 [5] = experiment: Induction of apoptosis in human A549 cells assessed as early apoptotic cells at 1 uM after 24 hrs by Annexin V-FITC/propidium iodide staining based flow cytometry (reference value: 0.886%); type: functional
A549 [6] = experiment: Induction of apoptosis in human A549 cells assessed as late apoptotic cells at 1 uM after 24 hrs by Annexin V-FITC/propidium iodide staining based flow cytometry (reference value: 0.462%); type: functional
A549 [7] = experiment: Induction of apoptosis in human A549 cells assessed as live cells at 1 uM after 24 hrs by Annexin V-FITC/propidium iodide staining based flow cytometry (reference value: 98.4%); type: functional
A549 [8] = experiment: Induction of apoptosis in human A549 cells assessed as necrotic cells at 1 uM after 24 hrs by Annexin V-FITC/propidium iodide staining based flow cytometry (reference value: 0.231%); type: functional
A549 [9] = experiment: Induction of apoptosis in human A549 cells assessed as live cells at 5 uM after 24 hrs by Annexin V-FITC/propidium iodide staining based flow cytometry (reference value: 98.4%); type: functional
A549 [10] = experiment: Induction of apoptosis in human A549 cells assessed as necrotic cells at 5 uM after 24 hrs by Annexin V-FITC/propidium iodide staining based flow cytometry (reference value: 0.231%); type: functional
A549 [11] = experiment: Induction of apoptosis in human A549 cells assessed as late apoptotic cells at 5 uM after 24 hrs by Annexin V-FITC/propidium iodide staining based flow cytometry (reference value: 0.462%); type: functional
A549 [12] = experiment: Induction of apoptosis in human A549 cells assessed as necrotic cells at 10 uM after 24 hrs by Annexin V-FITC/propidium iodide staining based flow cytometry (reference value: 0.231%); type: functional
A549 [13] = experiment: Induction of apoptosis in human A549 cells assessed as live cells at 10 uM after 24 hrs by Annexin V-FITC/propidium iodide staining based flow cytometry (reference value: 98.4%); type: functional
A549 [14] = experiment: Induction of apoptosis in human A549 cells assessed as early apoptotic cells at 10 uM after 24 hrs by Annexin V-FITC/propidium iodide staining based flow cytometry (reference value: 0.886%); type: functional
A549 [15] = experiment: Induction of apoptosis in human A549 cells assessed as late apoptotic cells at 10 uM after 24 hrs by Annexin V-FITC/propidium iodide staining based flow cytometry (reference value: 0.462%); type: functional
A549 [16] = experiment: Induction of apoptosis in human A549 cells assessed as early apoptotic cells at 5 uM after 24 hrs by Annexin V-FITC/propidium iodide staining based flow cytometry (reference value: 0.886%); type: functional
A549 [17] = experiment: Induction of apoptosis in human A549 cells after 24 hrs by Annexin V-FITC/propidium iodide staining based flow cytometry; type: functional, cell-based

| Compound | IC50 [1] [µM] | IC50 (MCF7) [µM] | IC50 (A549 [3]) [µM] | IC50 (A2780) [µM] | further results |
| --- | --- | --- | --- | --- | --- |
| COc1ccc(-c2cc(C(=O)NCCN(C)C)c3ccc4ccccc4c3n2)cc1 | 2.41 | 37.4 | 20.2 | 14.2 | Kb (Calf thymus DNA [2]): 2 ×10⁴ No_unit; Kb (Calf thymus DNA [4]): 7.4 ×10⁴ No_unit |
| COc1cccc2c1C(=O)c1c(O)c3c(c(O)c1C2=O)C[C@@](O)(C(=O)CO)C[C@@H]3O[C@H]1C[C@H](N)[C@H](O)[C@H](C)O1 [DOXORUBICIN] | – | 0.5 | 0.766 | 0.123 | Activity (A549 [5]): 2.19%; Activity (A549 [6]): 11.1%; Activity (A549 [7]): 31%; Activity (A549 [8]): 55.8% |
| Cc1ccc(-c2cc(C(=O)NCCN(C)C)c3ccc4ccccc4c3n2)cc1 | 3.62 | 1.51 | 5.89 | 9.08 | Activity (A549 [9]): 94.1%; Activity (A549 [10]): 0.2%; Activity (A549 [11]): 0.18%; Activity (A549 [12]): 0.22%; Activity (A549 [13]): 75.1%; Activity (A549 [14]): 24.6%; Activity (A549 [15]): 0.08%; Kb (Calf thymus DNA [2]): 2.2 ×10⁴ No_unit; Activity (A549 [16]): 5.48%; Activity (A549 [17]): Dose-dependent effect; Kb (Calf thymus DNA [4]): 8.1 ×10⁴ No_unit |
| CC(=O)Nc1ccc(-c2cc(C(=O)NCCN(C)C)c3ccc4c(c3n2)CCCC4)cc1 | 3.91 | 2.69 | 1.9 | 1.86 | Activity (A549 [9]): 63.7%; Activity (A549 [10]): 1.22%; Activity (A549 [11]): 7.58%; Activity (A549 [12]): 0.34%; Activity (A549 [13]): 53%; Activity (A549 [14]): 46.4%; Activity (A549 [15]): 0.34%; Kb (Calf thymus DNA [2]): 2 ×10⁴ No_unit; Activity (A549 [16]): 27.5%; Activity (A549 [17]): Dose-dependent effect |
| COc1cc(-c2cc(C(=O)NCCN(C)C)c3ccc4c(c3n2)CCCC4)cc(OC)c1OC | 11.6 | 5.62 | 14.5 | 11 | – |
| COc1ccc(-c2cc(C(=O)NCCN(C)C)c3ccc4c(c3n2)CCCC4)cc1 | 7.19 | 6.3 | 4.96 | 1.65 | – |
| Cc1ccc(-c2cc(C(=O)NCCN(C)C)c3ccc4c(c3n2)CCCC4)cc1 | 2.33 | 2.29 | 3.89 | 2.13 | Activity (A549 [9]): 97.8%; Activity (A549 [10]): 1.02%; Activity (A549 [11]): 0.093%; Activity (A549 [12]): 0.01%; Activity (A549 [13]): 54.9%; Activity (A549 [14]): 44.4%; Activity (A549 [15]): 0.72%; Kb (Calf thymus DNA [2]): 1.75 ×10⁴ No_unit; Activity (A549 [16]): 1.13%; Activity (A549 [17]): Dose-dependent effect; Kb (Calf thymus DNA [4]): 6.4 ×10⁴ No_unit |
| CN(C)CCNC(=O)c1cc(-c2ccc(F)cc2)nc2c3c(ccc12)CCCC3 | 18.4 | 12.9 | 13.6 | 6.16 | – |
| CN(C)CCNC(=O)c1cc(-c2ccccc2)nc2c1ccc1ccccc12 | 35.6 | 33.3 | 65.7 | 72.6 | – |
| CN(C)CCNC(=O)c1cc(-c2ccccn2)nc2c1ccc1ccccc12 | 39.3 | > 100 | 56.2 | 61.2 | – |
| CN(C)CCNC(=O)c1cc(-c2ccc(F)cc2)nc2c1ccc1ccccc12 | 5.29 | 16.6 | 18.4 | 14.3 | – |
| COc1ccc(-c2cc(C(=O)NCCN(C)C)c3ccc4c(c3n2)CCCC4)cc1OC | 12.7 | 13.8 | 15.4 | 11.5 | – |
| CC(=O)Nc1ccc(-c2cc(C(=O)NCCN(C)C)c3ccc4ccccc4c3n2)cc1 | 7.71 | 4.05 | 7.98 | 9.34 | – |
| CN(C)CCNC(=O)c1cc(-c2ccccn2)nc2c3c(ccc12)CCCC3 | 50 | 16.6 | 60.1 | 14.8 | – |
